Measured values reported in patent US20230348442A1, “GALECTIN-3 INHIBITING 2-HYDROXYCYCLOALKANE-1-CARBAMOYL DERIVATIVES” (Idorsia Pharmaceuticals Ltd, priority 2020, published 2023).
pIC50: −log10 of the molar value.

molecular target: human Gal-3 (hGal-3) (Homo sapiens (Human), UniProt P17931); assay: competitive binding assay: binding of biotinylated hGal-3 to microplate-adsorbed asialofetuin (ASF), spectrophotometric; conditions: Activity on hGal-3; mean values of several measurements
Method: Evaluation of Compound Inhibitory Activity (IC50)
The inhibitory activity of compounds is determined in competitive binding assays. This spectrophotometric assay measures the binding of biotinylated human Gal-3 (hGal-3) or human Gal-1 (hGal-1), respectively, to a microplate-adsorbed glycoprotein, asialofetuin (ASF) (Proc Natl Acad Sci USA. 2013 Mar. 26; 110(13):5052-7.). Alternatively, and preferably, a human Gal-1 version in which all six cysteines are substituted by serines may be used.
Briefly, compounds are serially diluted in DMSO (working dilutions). ASF-coated 384 well plates are supplemented with 22.8 μL/well of biotinylated hGal-3 or hGal-1 in assay buffer (i.e. 300-1000 ng/mL biotinylated hGal-3 or hGal-1) to which 1.2 μL of compound working dilutions are added and mixed.
Plates are incubated for 3 hours at 4° C., then washed with cold assay buffer (3×50 uL), incubated for 1 hour with 25 μL/well of a streptavidin-peroxidase solution (diluted in assay buffer to 80 ng/mL) at 4° C., followed by further washing steps with assay buffer (3×50 uL). Finally, 25 μL/well of ABTS substrate is added.
The calculated IC50 values may fluctuate depending on the daily assay performance. Fluctuations of this kind are known to those skilled in the art. IC50 values from several measurements are given as mean values.

Chain of human Gal-3 (hGal-3) (P17931 whole entry): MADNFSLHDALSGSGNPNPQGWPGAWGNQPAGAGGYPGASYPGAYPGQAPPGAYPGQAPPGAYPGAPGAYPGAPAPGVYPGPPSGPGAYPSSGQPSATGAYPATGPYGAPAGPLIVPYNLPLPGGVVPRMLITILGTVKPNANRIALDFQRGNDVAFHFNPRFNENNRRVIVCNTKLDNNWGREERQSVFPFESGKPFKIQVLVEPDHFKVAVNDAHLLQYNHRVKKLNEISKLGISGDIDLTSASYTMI

pIC50 | Compound
6.63 | CO[C@@H]1[C@@H](n2cc(-c3cc(F)c(F)c(Cl)c3)nn2)[C@@H](O)[C@@H](CO)O[C@H]1C(=O)N(c1cc(Br)cc(C#N)c1)[C@@H]1CC[C@H]1O [Example 2.7.5R, (2R,3R,4S,5R,6R)-N-(3-bromo-5-cyanophenyl)-4-(4-(3-chloro-4,5-difluorophenyl)-1H-1,2,3-triazol-1-yl)-5-hydroxy-N-((1R,2R)-2-hydroxycyclobutyl)-6-(hydroxymethyl)-3-methoxytetrahydro-2H-pyran-2-carboxamide]
7.38 | COc1cc(-c2cn([C@H]3[C@@H](O)[C@@H](CO)O[C@@H](C(=O)N(c4cc(C)cc(Br)c4)[C@H]4CCC[C@@H]4O)[C@@H]3OC)nn2)cc(F)c1F [Example 1.3.12, (2R,3R,4S,5R,6R)-N-(3-bromo-5-methylphenyl)-4-(4-(3,4-difluoro-5-methoxyphenyl)-1H-1,2,3-triazol-1-yl)-5-hydroxy-N-((1S,2S)-2-hydroxycyclopentyl)-6-(hydroxymethyl)-3-methoxytetrahydro-2H-pyran-2-carboxamide]
7.00 | CO[C@@H]1[C@@H](n2cc(-c3ccc(Br)c(F)c3F)nn2)[C@@H](O)[C@@H](CO)O[C@H]1C(=O)N(c1cc(Cl)cc(Cl)c1)[C@@H]1CC[C@H]1O [Example 2.12.2R, (2R,3R,4S,5R,6R)-4-(4-(4-bromo-2,3-difluorophenyl)-1H-1,2,3-triazol-1-yl)-N-(3,5-dichlorophenyl)-5-hydroxy-N-((1R,2R)-2-hydroxycyclobutyl)-6-(hydroxymethyl)-3-methoxytetrahydro-2H-pyran-2-carboxamide]
7.67 | CO[C@@H]1[C@@H](n2cc(-c3cc(F)c(F)c(Cl)c3)nn2)[C@@H](O)[C@@H](CO)O[C@H]1C(=O)N(c1cc(Br)cc(C#N)c1)[C@H]1CCC[C@@H]1O [Example 1.7.5, (2R,3R,4S,5R,6R)-N-(3-bromo-5-cyanophenyl)-4-(4-(3-chloro-4,5-difluorophenyl)-1H-1,2,3-triazol-1-yl)-5-hydroxy-N-((1S,2S)-2-hydroxycyclopentyl)-6-(hydroxymethyl)-3-methoxytetrahydro-2H-pyran-2-carboxamide]
6.46 | CO[C@@H]1[C@@H](n2cc(-c3cc(F)c(F)c(F)c3)nn2)[C@@H](O)[C@@H](CO)O[C@H]1C(=O)N(c1cc(C)cc(Br)c1)[C@@H]1CCC[C@H]1O [Example 1.1.12R, (2R,3R,4S,5R,6R)-N-(3-bromo-5-methylphenyl)-5-hydroxy-N-((1R,2R)-2-hydroxycyclopentyl)-6-(hydroxymethyl)-3-methoxy-4-(4-(3,4,5-trifluorophenyl)-1H-1,2,3-triazol-1-yl)tetrahydro-2H-pyran-2-carboxamide]
7.53 | COc1cc(-c2cn([C@H]3[C@@H](O)[C@@H](CO)O[C@@H](C(=O)N(c4cc(Cl)cc(Cl)c4)[C@H]4CCC[C@@H]4O)[C@@H]3OC)nn2)cc(F)c1F [Example 1.3.2, (2R,3R,4S,5R,6R)-N-(3,5-dichlorophenyl)-4-(4-(3,4-difluoro-5-methoxyphenyl)-1H-1,2,3-triazol-1-yl)-5-hydroxy-N-((1S,2S)-2-hydroxycyclopentyl)-6-(hydroxymethyl)-3-methoxytetrahydro-2H-pyran-2-carboxamide]
7.76 | CO[C@@H]1[C@@H](n2cc(-c3cc(F)c(C)c(F)c3)nn2)[C@@H](O)[C@@H](CO)O[C@H]1C(=O)N(c1cc(Cl)cc(C#N)c1)[C@H]1CCC[C@@H]1O [Example 1.4.4, (2R,3R,4S,5R,6R)-N-(3-chloro-5-cyanophenyl)-4-(4-(3,5-difluoro-4-methylphenyl)-1H-1,2,3-triazol-1-yl)-5-hydroxy-N-((1S,2S)-2-hydroxycyclopentyl)-6-(hydroxymethyl)-3-methoxytetrahydro-2H-pyran-2-carboxamide]
6.27 | CO[C@@H]1[C@@H](n2cc(-c3ccc(Cl)cc3)nn2)[C@@H](O)[C@@H](CO)O[C@H]1C(=O)N(c1cc(Cl)cc(C#N)c1)[C@@H]1CCC[C@H]1O [Example 1.18.4R, (2R,3R,4S,5R,6R)-N-(3-chloro-5-cyanophenyl)-4-(4-(4-chlorophenyl)-1H-1,2,3-triazol-1-yl)-5-hydroxy-N-((1R,2R)-2-hydroxycyclopentyl)-6-(hydroxymethyl)-3-methoxytetrahydro-2H-pyran-2-carboxamide]
7.60 | COc1cc(-c2cn([C@H]3[C@@H](O)[C@@H](CO)O[C@@H](C(=O)N(c4cc(Br)cc(C#N)c4)[C@H]4CCC[C@@H]4O)[C@@H]3OC)nn2)cc(F)c1F [Example 1.3.5, (2R,3R,4S,5R,6R)-N-(3-bromo-5-cyanophenyl)-4-(4-(3,4-difluoro-5-methoxyphenyl)-1H-1,2,3-triazol-1-yl)-5-hydroxy-N-((1S,2S)-2-hydroxycyclopentyl)-6-(hydroxymethyl)-3-methoxytetrahydro-2H-pyran-2-carboxamide]
6.60 | CO[C@@H]1[C@@H](n2cc(-c3cc(F)c(Cl)c(Cl)c3)nn2)[C@@H](O)[C@@H](CO)O[C@H]1C(=O)N(c1cc(Br)cc(C#N)c1)[C@@H]1CC[C@H]1O [Example 2.17.5R, (2R,3R,4S,5R,6R)-N-(3-bromo-5-cyanophenyl)-4-(4-(3,4-dichloro-5-fluorophenyl)-1H-1,2,3-triazol-1-yl)-5-hydroxy-N-((1R,2R)-2-hydroxycyclobutyl)-6-(hydroxymethyl)-3-methoxytetrahydro-2H-pyran-2-carboxamide]
6.74 | CO[C@@H]1[C@@H](n2cc(-c3cc(F)c(Cl)c(F)c3)nn2)[C@@H](O)[C@@H](CO)O[C@H]1C(=O)N(c1cc(Br)cc(C#N)c1)[C@@H]1CC[C@H]1O [Example 2.5.5R, (2R,3R,4S,5R,6R)-N-(3-bromo-5-cyanophenyl)-4-(4-(4-chloro-3,5-difluorophenyl)-1H-1,2,3-triazol-1-yl)-5-hydroxy-N-((1R,2R)-2-hydroxycyclobutyl)-6-(hydroxymethyl)-3-methoxytetrahydro-2H-pyran-2-carboxamide]
7.35 | CO[C@@H]1[C@@H](n2cc(-c3ccc(Br)c(F)c3F)nn2)[C@@H](O)[C@@H](CO)O[C@H]1C(=O)N(c1cc(Cl)cc(C#N)c1)[C@H]1CC[C@@H]1O [Example 2.12.4, (2R,3R,4S,5R,6R)-4-(4-(4-bromo-2,3-difluorophenyl)-1H-1,2,3-triazol-1-yl)-N-(3-chloro-5-cyanophenyl)-5-hydroxy-N-((1S,2S)-2-hydroxycyclobutyl)-6-(hydroxymethyl)-3-methoxytetrahydro-2H-pyran-2-carboxamide]
6.16 | CO[C@@H]1[C@@H](n2cc(-c3cc(F)cc(Br)c3)nn2)[C@@H](O)[C@@H](CO)O[C@H]1C(=O)N(c1cc(Cl)cc(C#N)c1)[C@@H]1CCC[C@H]1O [Example 1.10.4R, (2R,3R,4S,5R,6R)-4-(4-(3-bromo-5-fluorophenyl)-1H-1,2,3-triazol-1-yl)-N-(3-chloro-5-cyanophenyl)-5-hydroxy-N-((1R,2R)-2-hydroxycyclopentyl)-6-(hydroxymethyl)-3-methoxytetrahydro-2H-pyran-2-carboxamide]
6.56 | COc1cc(-c2cn([C@H]3[C@@H](O)[C@@H](CO)O[C@@H](C(=O)N(c4cc(Br)cc(Br)c4)[C@@H]4CCC[C@H]4O)[C@@H]3OC)nn2)cc(F)c1F [Example 1.3.11R, (2R,3R,4S,5R,6R)—N-(3,5-dibromophenyl)-4-(4-(3,4-difluoro-5-methoxyphenyl)-1H-1,2,3-triazol-1-yl)-5-hydroxy-N-((1R,2R)-2-hydroxycyclopentyl)-6-(hydroxymethyl)-3-methoxytetrahydro-2H-pyran-2-carboxamide]
7.53 | (2R,3R,4S,5R,6R)-N-(3,5-dichlorophenyl)-3,5-dihydroxy-N-((1S,2S)-2-hydroxycyclopentyl)-6-(hydroxymethyl)-4-(4-(3,4,5-trifluorophenyl)-1H-1,2,3-triazol-1-yl)tetrahydro-2H-pyran-2-carboxamide [Example 1H.1.2]
6.33 | CO[C@@H]1[C@@H](n2cc(-c3cc(F)cc(Cl)c3)nn2)[C@@H](O)[C@@H](CO)O[C@H]1C(=O)N(c1cc(Br)cc(C#N)c1)[C@@H]1CC[C@H]1O [Example 2.9.5R, (2R,3R,4S,5R,6R)-N-(3-bromo-5-cyanophenyl)-4-(4-(3-chloro-5-fluorophenyl)-1H-1,2,3-triazol-1-yl)-5-hydroxy-N-((1R,2R)-2-hydroxycyclobutyl)-6-(hydroxymethyl)-3-methoxytetrahydro-2H-pyran-2-carboxamide]
6.41 | CO[C@@H]1[C@@H](n2cc(-c3cc(F)c(F)c(F)c3)nn2)[C@@H](O)[C@@H](CO)O[C@H]1C(=O)N(c1cc(Cl)cc(C#N)c1)[C@@H]1CC[C@H]1O [Example 2.1.4R, (2R,3R,4S,5R,6R)-N-(3-chloro-5-cyanophenyl)-5-hydroxy-N-((1R,2R)-2-hydroxycyclobutyl)-6-(hydroxymethyl)-3-methoxy-4-(4-(3,4,5-trifluorophenyl)-1H-1,2,3-triazol-1-yl)tetrahydro-2H-pyran-2-carboxamide]
6.79 | CO[C@@H]1[C@@H](n2cc(-c3ccc(Br)cc3)nn2)[C@@H](O)[C@@H](CO)O[C@H]1C(=O)N(c1cc(Cl)cc(C#N)c1)[C@H]1CCC[C@@H]1O [Example 1.19.4, (2R,3R,4S,5R,6R)-4-(4-(4-bromophenyl)-1H-1,2,3-triazol-1-yl)-N-(3-chloro-5-cyanophenyl)-5-hydroxy-N-((1S,2S)-2-hydroxycyclopentyl)-6-(hydroxymethyl)-3-methoxytetrahydro-2H-pyran-2-carboxamide]
